From ChEMBL document CHEMBL3714769, “Heterocyclic compounds for the inhibition of pask” (2014)

Target: PAS domain-containing serine/threonine-protein kinase (Homo sapiens, UniProt Q96RG2)
Assay: Inhibition of human recombinant PASK using Ulight-peptide substrate incubated for 2 hrs by TR-FRET assay

Chain of PAS domain-containing serine/threonine-protein kinase (Q96RG2 whole entry, the tested form may be a part): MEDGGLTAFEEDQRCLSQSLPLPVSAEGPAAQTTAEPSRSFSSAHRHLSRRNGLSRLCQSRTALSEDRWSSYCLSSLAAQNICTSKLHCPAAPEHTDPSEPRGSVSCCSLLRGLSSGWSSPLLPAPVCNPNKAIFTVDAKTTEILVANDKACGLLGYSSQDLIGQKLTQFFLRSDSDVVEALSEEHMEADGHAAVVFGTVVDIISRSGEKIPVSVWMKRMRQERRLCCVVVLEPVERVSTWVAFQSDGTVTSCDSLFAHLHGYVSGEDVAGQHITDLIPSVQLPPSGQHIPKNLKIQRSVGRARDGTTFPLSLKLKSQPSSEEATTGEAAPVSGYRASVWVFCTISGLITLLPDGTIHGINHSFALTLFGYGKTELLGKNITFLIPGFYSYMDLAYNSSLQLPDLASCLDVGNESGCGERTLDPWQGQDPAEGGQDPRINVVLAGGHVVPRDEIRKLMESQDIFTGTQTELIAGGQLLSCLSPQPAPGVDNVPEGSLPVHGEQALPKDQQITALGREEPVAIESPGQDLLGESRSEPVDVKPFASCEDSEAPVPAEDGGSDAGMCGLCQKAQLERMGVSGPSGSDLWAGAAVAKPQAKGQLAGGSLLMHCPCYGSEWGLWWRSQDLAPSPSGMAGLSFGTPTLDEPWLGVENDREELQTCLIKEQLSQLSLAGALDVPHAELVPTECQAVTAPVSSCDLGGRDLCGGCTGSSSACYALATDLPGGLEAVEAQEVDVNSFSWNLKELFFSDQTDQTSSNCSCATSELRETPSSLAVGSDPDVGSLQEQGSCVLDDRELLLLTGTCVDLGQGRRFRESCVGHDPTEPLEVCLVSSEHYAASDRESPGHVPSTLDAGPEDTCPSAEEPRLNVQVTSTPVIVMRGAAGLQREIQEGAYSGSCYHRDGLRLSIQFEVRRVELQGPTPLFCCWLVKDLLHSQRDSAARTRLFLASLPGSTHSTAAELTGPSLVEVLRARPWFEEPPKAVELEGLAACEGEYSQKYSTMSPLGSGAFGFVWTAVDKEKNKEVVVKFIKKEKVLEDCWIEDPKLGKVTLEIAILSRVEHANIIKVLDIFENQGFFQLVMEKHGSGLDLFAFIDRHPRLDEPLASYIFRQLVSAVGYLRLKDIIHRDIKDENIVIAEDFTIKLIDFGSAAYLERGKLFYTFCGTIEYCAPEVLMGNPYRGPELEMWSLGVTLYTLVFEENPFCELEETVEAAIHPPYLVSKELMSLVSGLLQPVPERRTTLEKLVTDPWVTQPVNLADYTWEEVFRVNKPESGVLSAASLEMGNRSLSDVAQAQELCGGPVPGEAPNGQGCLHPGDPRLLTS

Row | IC50 | Compound
1 | ≤ 10 µM | O=c1cc(-c2ccc3[nH]nnc3c2)[nH]c2nc(-c3ccc(Cl)c(Cl)c3)nn12
2 | ≤ 10 µM | COc1cc(-c2cc(=O)n3nc(-c4ccc(F)cc4)nc3[nH]2)ccc1Cl
